Test results published in patent US8193192B2, “Heterocyclic FXR binding compounds” (Phenex Pharmaceuticals AG, priority 2006, dated 2012).
pEC50: −log10 of the molar value. In brackets after ≈: the same amount, converted by molar mass.

What was measured:
[1] = The Merck index, 10th edition; cited from earlier work
[2] = molecular target: T1, human farnesoid X receptor (FXR) alpha ligand binding domain (Homo sapiens, UniProt Q96RI1); assay: FRET activity assay (ligand mediated cofactor peptide interaction, LANCE); type: biochemical; settings: FXR-LBD/SRC-1 peptide interaction
T1 construct: made in house; host or cells: E. coli BL21(DE3), vector pDEST15
T1 sequence (Q96RI1 187-472 isoform Q96RI1-2): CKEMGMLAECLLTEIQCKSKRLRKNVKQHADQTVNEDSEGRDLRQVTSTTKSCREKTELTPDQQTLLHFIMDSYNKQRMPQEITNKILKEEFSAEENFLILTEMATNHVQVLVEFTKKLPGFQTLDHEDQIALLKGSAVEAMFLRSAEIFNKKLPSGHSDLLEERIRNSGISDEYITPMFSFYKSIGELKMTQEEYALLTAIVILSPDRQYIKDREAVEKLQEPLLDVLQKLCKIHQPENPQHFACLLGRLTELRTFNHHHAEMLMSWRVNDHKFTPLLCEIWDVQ
Procedure: Determination of a ligand mediated cofactor peptide interaction to quantify ligand binding to the nuclear receptor Farnesoid X Receptor (FXR) was performed as follows:
Preparation of human farnesoid X receptor (FXR) alpha ligand binding domain: The human FXRalpha ligand binding domain (LBD) was expressed in E. coli strain BL21(DE3) as an N-terminally glutathione-S-transferase (GST) tagged fusion protein. The DNA encoding the FXR ligand binding domain was cloned into vector pDEST15 (Invitrogen). Expression was under control of an IPTG inducible T7 promoter. The amino acid boundaries of the ligand binding domain were amino acids 187-472 of Database entry NM_005123 (RefSeq). Expression and purification of the FXR-LBD: An overnight preculture of a transformed E. coli strain was diluted 1:20 in LB-Ampicillin medium and grown at 30° C. to an optical density of OD600=0.4-0.6. Gene expression was then induced by addition of 0.5 mM IPTG. Cells were incubated an additional 6 h at 30° C., 180 rpm. Cells were collected by centrifugation (7000×g, 7 min, room temperature). Per liter of original cell culture, cells were resuspended in 10 ml lysis buffer (50 mM Glucose, 50 mM Tris pH 7.9, 1 mM EDTA and 4 mg/ml lysozyme) and left on ice for 30 min. Cells were then subjected to sonication and cell debris removed via centrifugation (22000×g, 30 min, 4° C.). Per 10 ml of supernatant 0.5 ml prewashed Glutathione 4B sepharose slurry (Qiagen) was added and the suspension kept slowly rotating for 1 h at 4° C. Glutathione 4B sepharose beads were pelleted by centrifugation (2000 g, 15 sec, 4° C.) and washed twice in wash buffer (25 mM Tris, 50 mM KCl, 4 mM MgCl2 and 1 M NaCl). The pellet was resuspended in 3 ml elution buffer per liter of original culture (elution buffer: 20 mM Tris, 60 mM KCl, 5 mM MgCl2 and 80 mM glutathione added immediately prior to use as powder). The suspension was left rotating for 15 min at 4° C., the beads pelleted and eluted again with half the volume of elution buffer than the first time. The eluates were pooled and dialysed overnight in 20 mM Hepes buffer (pH 7.5) containing 60 mM KCl, 5 mM MgCl2 as well as 1 mM dithiothreitol and 10% (v/v) glycerol. The protein was analysed by SDS-Page.
The method measures the ability of putative ligands to modulate the interaction between the purified bacterial expressed FXR ligand binding domain (LBD) and a synthetic biotinylated peptide based on residues 676-700 of SRC-1 (LCD2, 676-700). The sequence of the peptide used was B-[…]-COOH where the N-terminus was biotinylated (B). The ligand binding domain (LBD) of FXR was expressed as fusion protein with GST in BL-21 cells using the vector pDEST15. Cells were lysed by sonication, and the fusion proteins purified over glutathione sepharose (Pharmacia) according to the manufacturers instructions. […] For ease of handling and reduction of background from compound fluorescence LANCE technology makes use of generic fluorophore labels and time resolved detection Assays were done in a final volume of 25 μl in a 384 well plate, in a Tris-based buffer (20 mM Tris-HCl pH 7.5; 60 mM KCl, 5 mM MgCl2; 35 ng/μl BSA), containing 20-60 ng/well recombinantly expressed FXR-LBD fused to GST, 200-600 nM N-terminally biotinylated peptide, representing SRC1 aminoacids 676-700, 200 ng/well Streptavidin-xIAPC conjugate (Prozyme) and 6-10 ng/well Eu W1024-antiGST (Perkin Elmer). […]

PAMPA permeability assay = type: in vitro ADME; settings: % of compound found in the receiver compartment after 16 hours; PBS pH 7.4, 5% DMSO, 23° C.
Procedure: Artificial membrane permeability was determined as follows: Tested compounds were dissolved to 10 mM in 100% DMSO. Permeability of compounds was measured in PBS (pH 7.4), 5% DMSO at 23° C. Safire (Tecan) plate reader was used for measurement the UV/Vis absorption. Protocol: Dilute stocks of tested compounds and controls with PBS to 1.67 mM and mix well by pipetting, add 280 μl of PBS, 5% DMSO to acceptor plate, add 5 μl of 2% L-α-Phosphatidylcholine suspension in dodecane to the membrane of donor plate. Immediately add 98 μl of PBS to donor plate and make the sandwich with acceptor plate. Add 42 μl of tested compounds and controls dilutions to […], cover the plate, place into camera and incubate for 16 hours. Make the equilibrium plate, add 225 μl of PBS, 3.7% DMSO and 25 μl of tested compounds and controls dilutions to UV plate. After 16 hours pull the donor plate out and transfer 250 μl from acceptor plate to UV plate. Scan UV plate on Safire (Tecan) plate reader from […]. Permeability is reported in % of compound found in the receiver compartment after the incubation period. Applying this protocol, PAMPA permeabilities of examples and reference compounds were determined as follows (see Table 4): […]

[3] = Aqueous solubility assay, Protocol B, shake-flask method; type: physicochemical; settings: 10 mM PBS buffer with 1% MeOH, kinetic from dmso stock, 10 mM PBS buffer pH 7.4, 1% MeOH, room temperature, read-out: Aqueous solubility pH 7.4 (μM) (±standard deviation), shake-flask method
Procedure: (§1) Aqueous solubility of compounds was determined by nephelometry or by shake-flask method as follows:
Protocol B, Shake-Flask Method:
Sample preparation: Sample and standard solution preparation is performed by mixing equal volumes of acetonitrile containing the internal standard (1 μM final concentration) with sample and calibration standard solutions (100 μl). After vigorously shaking (10 seconds) the samples are centrifuged (6000 g) for 5 minutes at 20° C. Aliquots of the particle-free supernatants are transferred to 200 μl sample vials and subsequently subjected to LC-MS/MS analysis. Assay procedure: Test concentration was 100 μM in 10 mM PBS buffer pH 7.4 with a final MeOH concentration of 1%. The volume of the incubation solution was 500 μl. Depending on each compound's solubility in MeOH, the stock concentration and the incubation concentration was adapted. The test solutions in quadruplicates were shaken at 300 rpm over a 20 hours period at room temperature, followed by centrifugation at 20000 g for 30 minutes to separate the solid phase. 100 μl of particle free sample are added to 100 μl acetonitrile containing the internal standard. The aqueous solubility of the compounds was determined by measuring the concentration of the PBS buffer supernatant by HPLC-MS/MS. Aqueous solubilities of examples and reference compounds are listed below in Table 3.

[4] = Microsomal stability assay; type: in vitro ADME; settings: pH 7.4; mouse liver microsomes, 37° C.
Procedure: Microsomal Stability Assay
In vitro assays were performed to evaluate the metabolic stability of test items in liver microsomes originating from mouse. Preparation of working standards of test items: Working solutions were prepared for each calibration level by appropriate dilution of the corresponding stock solution, depending on each compound's solubility in acetonitrile or acetonitrile/water. Calibration standards were prepared by spiking 196 μl standard matrix with 4 μl of the corresponding working solution. The standard matrix consists of 0.15 mg/ml of microsomal protein in phosphate buffer (100 mM pH 7.4), the final standard solutions contain 2% acetonitrile. The samples and standard solutions were extracted with ethyl acetate, isolation of the compounds was performed by addition of 600 μl ethyl acetate containing the internal standard (0.1 μM) to 200 μl sample and calibration standard. After vigorously shaking (10 minutes) and centrifugation (5000 g) the aqueous phase was separated by freezing in an acetone/dry ice bath and the organic phase is evaporated to dryness using a vacuum centrifuge. Samples were reconstituted in 200 μl acetonitrile/water mix (1:1 v/v) and subsequently subjected to LC-MS/MS. The incubation solution (180 μl) consisted of 90 μl of a microsomal suspension of 0.33 mg/ml of protein in phosphate buffer 100 mM pH 7.4 and 90 μl NADP-regenerating system. The reaction was initiated by the addition of 20 μl of test compound (in 20% acetonitrile) to the preincubated microsomes/buffer mix at 37° C. 200 μl samples were removed from the incubation after 0, 5, 10, and 30 minutes and processed for ethyl acetate extraction as described above. Negative controls using boiled microsomes (boiling water bath, 25 minutes) without regenerating system were run in parallel. The amount of compound in the samples is expressed as percentage of remaining compound compared to time point zero (=100%). These percentages were plotted against the corresponding time points. Intrinsic clearance (CLint) and half-life (t1/2) estimates were determined using the rate of parent disappearance and following formula (1) and (2). (1) CLint=(−k)×V×fu. (2) t1/2=ln 2/−k. Where CLint=intrinsic clearance [μl/min/mg protein], t1/2=half life [min], k=slope from the linear regression of log [test compound] versus time plot [1/min]. V=6666.7; fu=unbound fraction in the blood. Applying this protocol gave microsomal stabilities for examples and reference compounds as listed below in Table 6: […]

[5] = Aqueous solubility assay, Protocol A, nephelometry method; type: physicochemical; settings: PBS with 5% DMSO, aqueous with cosolvent or surfactant or cyclodextrin, kinetic from dmso stock, PBS pH 7.4, 5% DMSO, 23° C.
Procedure: as §1
Protocol A, Nephelometry Method:
Solubility of compounds was measured in PBS (pH 7.4), 5% DMSO at 23° C. Nepheloskan Ascent (Thermo Electron Corporation) nephelometer was used for measurement of light scattering. Tested compounds were dissolved in DMSO to 10 mM. Prior to measurement the compounds were further diluted with PBS in the wells to final compound concentrations of 100, 70, 50, 35, 25, 17, 12 and <10 μg/ml.
The plates were incubated at room temperature for 24 hours to reach equilibrium and the scattered light was measured. Assay validation: Aqueous solubility of acetylsalicylic acid was determined to validate the assay. […] Aqueous solubilities of examples and reference compounds are listed below in Table 2.

CC(=O)Oc1ccccc1C(=O)O [acetylsalicylic acid]
Aqueous solubility, reported literature value [1]: at least 2.17 mg/ml

CC(C)c1onc(-c2c(Cl)cccc2Cl)c1COc1ccc(Oc2ccc(C(=O)O)cc2)nn1 [Example 5, 4-(6-((3-(2,6-Dichlorophenyl)-5-isopropylisoxazol-4-yl)methoxy)pyridazin-3-yloxy)benzoic acid]
pEC50 [2]: ≥ 6.00

CC(C)c1onc(-c2c(Cl)cccc2Cl)c1COc1ccc(/C=C/c2cccc(C(=O)O)c2)c(Cl)c1 [Compound B, reference compound]
PAMPA Permeability (PAMPA permeability assay): 7%

CC(C)c1onc(-c2c(Cl)cccc2Cl)c1COc1ccc(Oc2cccc(C(=O)O)c2)cn1 [Example 2, 3-(6-((3-(2,6-Dichlorophenyl)-5-isopropylisoxazol-4-yl)methoxy)pyridin-3-yloxy)benzoic acid]
PAMPA Permeability (PAMPA permeability assay): 43% | pEC50 [2]: ≥ 6.00

CC(C)c1onc(-c2c(Cl)cccc2Cl)c1COc1ccc(Oc2ccc(C(=O)NS(C)(=O)=O)cc2)cn1 [Example 4, 4-(6-((3-(2,6-Dichlorophenyl)-5-isopropylisoxazol-4-yl)methoxy)pyridin-3-yloxy)-N-(methylsulfonyl)benzamide]
solubility at 20 h [3]: 114 µM (≈ 65.7 µg/mL) | melting point: 182 to 184 °C | half-life [4]: 30 min | microsomal CLint [4]: 153 µL/min/mg | pEC50 [2]: ≥ 6.00

CC(C)c1onc(-c2c(Cl)cccc2Cl)c1COc1ccc(Oc2ccc(C(=O)O)cc2)cn1 [Example 1, 4-(6-((3-(2,6-Dichlorophenyl)-5-isopropylisoxazol-4-yl)methoxy)pyridin-3-yloxy)benzoic acid]
PAMPA Permeability (PAMPA permeability assay): 54% | solubility at 24 h [5]: > 200 µM | pEC50 [2]: ≥ 6.00
